Consider 13 compounds from patent publication US5447942A, “N-derivatives of (phenylethyl-β-ol) amine, a process for their preparation and pharamaceutical compositions containing the same” (Societe de Conseils de Recherches et d'Applications …, priority 1992, dated 1995).

One assay has as its target β adrenoceptors. Nature of the assay: radioligand binding studies in lung membrane (Table A, binding affinity). The text has this: The results are summarised in Table A. Generally, the activity is better for the trans than the cis isomer.
Assay [1] has as its system acetylcholine induced bronchoconstriction. The experiment in a line: inhibition of acetylcholine induced bronchoconstriction, Konzett and Rossler method (Table B). Particulars: IV; for inhibition in vivo at 0.13 µmol/kg / inhibition in vivo at 0.42 µmol/kg / inhibition in vivo at 1.53 µmol/kg / inhibition in vivo at 3.6 µmol/kg / inhibition in vivo at 0.46 µmol/kg / inhibition in vivo at 1.5 µmol/kg / inhibition in vivo at 1.48 µmol/kg / inhibition in vivo at 0.47 µmol/kg / inhibition in vivo at 0.48 µmol/kg: Cavia porcellus. In kind it is in vivo, Male Hartley Guinea Pigs. The protocol: Male Hartley Guinea Pigs (450-500 g) were anaesthetised with ethyl carbamate and prepared for recording bronchoconstriction according to Konzett and Rossler method (Naunym Schmiedebergers Arch. Exp. Path. Pharmakol (1940) 195, 71). To abolish spontaneous respiration, an injection IV of vecuronium bromide (2 mg/kg) was made. Bronchoconstriction was induced by IV injection of Acetylcholine and the animals received one dose of β agonist compound (IV) 5 minutes later.

[2] abbreviates: 5 min, 0.13 μmol/kg, 5 mn, read-out: bronchoconstriction protection, score 5 mn.
[3] abbreviates: 0.25 h, 0.13 μmol/kg, 15 mn, read-out: bronchoconstriction protection, score 15 mn.
Where [4] appears, read: 0.5 h, 0.13 μmol/kg, 30 mn, read-out: bronchoconstriction protection, score 30 mn.
[5] abbreviates: 5 min, 0.46 μmol/kg, 5 mn, read-out: bronchoconstriction protection, score 5 mn.
The mark [6] stands for this setting: 0.25 h, 0.46 μmol/kg, 15 mn, read-out: bronchoconstriction protection, score 15 mn.
The mark [7] stands for this setting: 0.5 h, 0.46 μmol/kg, 30 mn, read-out: bronchoconstriction protection, score 30 mn.

Molecules are shown by their SMILES. Read-outs that look alike come from different tables or passages of the source.

The term Ki denotes a measure of affinity in units of concentration, obtained from inhibition or displacement.

At β adrenoceptors, `COc1cc([C@H]2CC[C@H](CNCC(O)c3ccc(O)c(CO)c3)O2)cc(OC)c1OC` (relative stereo) [Example 2 (trans), 2-(3',4',5'-trimethoxyphenyl)-5-[N-[β-(3'-hydroxymethyl-4'-hydroxy-phenyl)-β-hydroxy-ethyl]-aminomethyl]-tetrahydrofuran] showed a Ki of 80 nM. The figures for the “bronchoconstriction protection, duration of action” value (“bronchoconstriction protection” below) in assay [1] (0.13 μmol/kg) and in assay [1] (0.42 μmol/kg) were 30 mn and over 50 mn, respectively. The inhibition in vivo at 0.13 µmol/kg is over 75% in assay [1] (setting [2]), 50 to 75% in assay [1] (setting [3]) and 20 to 50% in assay [1] (setting [4]). The inhibition in vivo at 0.42 µmol/kg in assay [1] (5 min, 0.42 μmol/kg, 5 mn, read-out: bronchoconstriction protection, score 5 mn) is over 75%; in assay [1] (0.25 h, 0.42 μmol/kg, 15 mn, read-out: bronchoconstriction protection, score 15 mn), over 75%; in assay [1] (0.5 h, 0.42 μmol/kg, 30 mn, read-out: bronchoconstriction protection, score 30 mn) it was over 75%.

On to `COc1ccc([C@H]2CC[C@H](CNCC(O)c3ccc(O)c(CO)c3)O2)c(OC)c1OC` (relative stereo) [Example 3 (trans), 2-(2',3',4'-trimethoxyphenyl)-5-[N-[β-(3'-hydroxymethyl-4'-hydroxy-phenyl)-β-hydroxy-ethyl]-aminomethyl]-tetrahydrofuran], for which affinity on β adrenoceptors was put at a Ki of 1600 nM. Moreover, the entries for the “bronchoconstriction protection” value in assay [1] (1.53 μmol/kg) and in assay [1] (3.6 μmol/kg) were 5 mn and 30 mn, respectively. Further, the inhibition in vivo at 1.53 µmol/kg in assay [1] (5 min, 1.53 μmol/kg, 5 mn, read-out: bronchoconstriction protection, score 5 mn) was 20 to 50%; in assay [1] (0.25 h, 1.53 μmol/kg, 15 mn, read-out: bronchoconstriction protection, score 15 mn), under 20%; in assay [1] (0.5 h, 1.53 μmol/kg, 30 mn, read-out: bronchoconstriction protection, score 30 mn) it was under 20%. Also, the inhibition in vivo at 3.6 µmol/kg in assay [1] (5 min, 3.6 μmol/kg, 5 mn, read-out: bronchoconstriction protection, score 5 mn) lay in the range of 50 to 75%; in assay [1] (0.25 h, 3.6 μmol/kg, 15 mn, read-out: bronchoconstriction protection, score 15 mn) it was 20 to 50%; in assay [1] (0.5 h, 3.6 μmol/kg, 30 mn, read-out: bronchoconstriction protection, score 30 mn) it was 20 to 50%.

With `OCc1cc(C(O)CNC[C@@H]2CC[C@H](c3ccccc3Cl)O2)ccc1O` (relative stereo) [Example 4 (cis), 2-(2'-chlorophenyl)-5-[N-[β-(3'-hydroxymethyl-4'-hydroxy-phenyl)-β-hydroxy-ethyl]-aminomethyl]-tetrahydrofuran], the Ki at β adrenoceptors turned out to be 347 nM. Besides, the “bronchoconstriction protection” value in assay [1] (0.46 μmol/kg) is given as 10 mn; in assay [1] (1.5 μmol/kg), under 40 mn. Further, the inhibition in vivo at 0.46 µmol/kg in assay [1] (setting [5]) was 50 to 75%; in assay [1] (setting [6]), under 20%; in assay [1] (setting [7]) it was under 20%. The inhibition in vivo at 1.5 µmol/kg in assay [1] (5 min, 1.5 μmol/kg, 5 mn, read-out: bronchoconstriction protection, score 5 mn) is 50 to 75%; in assay [1] (0.25 h, 1.5 μmol/kg, 15 mn, read-out: bronchoconstriction protection, score 15 mn), 50 to 75%; in assay [1] (0.5 h, 1.5 μmol/kg, 30 mn, read-out: bronchoconstriction protection, score 30 mn) it was 20 to 50%.

At β adrenoceptors, `OCc1cc(C(O)CNC[C@H]2CC[C@H](c3ccccc3Cl)O2)ccc1O` (relative stereo) [Example 4 (trans), 2-(2'-chlorophenyl)-5-[N-[β-(3'-hydroxymethyl-4'-hydroxy-phenyl)-β-hydroxy-ethyl]-aminomethyl]-tetrahydrofuran] yielded an inhibitory constant (Ki) of 400 nM. The “bronchoconstriction protection” value is listed as 10 mn in assay [1] (0.46 μmol/kg) and over 25 mn in assay [1] (1.48 μmol/kg). For the same compound, the results for the inhibition in vivo at 0.46 µmol/kg in assay [1] (setting [5]), in assay [1] (setting [6]) and in assay [1] (setting [7]) were over 75%, under 20% and under 20%, respectively. Also, the inhibition in vivo at 1.48 µmol/kg in assay [1] (5 min, 1.48 μmol/kg, 5 mn, read-out: bronchoconstriction protection, score 5 mn) is over 75%; in assay [1] (0.25 h, 1.48 μmol/kg, 15 mn, read-out: bronchoconstriction protection, score 15 mn), 50 to 75%; in assay [1] (0.5 h, 1.48 μmol/kg, 30 mn, read-out: bronchoconstriction protection, score 30 mn), 50 to 75%.

The compound `OCc1cc(C(O)CNC[C@@H]2CC[C@H](c3cccc(Cl)c3)O2)ccc1O` (relative stereo) [Example 5 (cis), 2-(3'-chlorophenyl)-5-[N-[β-(3'-hydroxymethyl-4'-hydroxy-phenyl)-β-hydroxy-ethyl]-aminomethyl]-tetrahydrofuran] gave an inhibition constant (Ki) on β adrenoceptors of 760 nM. Moreover, the “bronchoconstriction protection” value in assay [1] (0.47 μmol/kg) is given as under 10 mn. Further, the inhibition in vivo at 0.47 µmol/kg in assay [1] (5 min, 0.47 μmol/kg, 5 mn, read-out: bronchoconstriction protection, score 5 mn) is 20 to 50%; in assay [1] (0.25 h, 0.47 μmol/kg, 15 mn, read-out: bronchoconstriction protection, score 15 mn), under 20%; in assay [1] (0.5 h, 0.47 μmol/kg, 30 mn, read-out: bronchoconstriction protection, score 30 mn), under 20%.

As for `OCc1cc(C(O)CNC[C@H]2CC[C@H](c3cccc(Cl)c3)O2)ccc1O` (relative stereo) [Example 5 (trans), 2-(3'-chlorophenyl)-5-[N-[β-(3'-hydroxymethyl-4'-hydroxy-phenyl)-β-hydroxy-ethyl]-aminomethyl]-tetrahydrofuran], the inhibition constant (Ki) at β adrenoceptors is 750 nM. Moreover, the “bronchoconstriction protection” value in assay [1] (0.46 μmol/kg) is over 20 mn. The results for the inhibition in vivo at 0.46 µmol/kg in assay [1] (setting [5]), in assay [1] (setting [6]) and in assay [1] (setting [7]) were 50 to 75%, 20 to 50% and 20 to 50%, respectively.

As to `COc1ccc([C@H]2CC[C@@H](CNCC(O)c3ccc(O)c(CO)c3)O2)cc1OC` (relative stereo) [Example 8 (cis), 2-(3',4'-dimethoxyphenyl)-5-[N-[β-(3'-hydroxymethyl-4'-hydroxy-phenyl)-β-hydroxyethyl]-aminomethyl]-tetrahydrofuran], the Ki at β adrenoceptors is 1100 nM. Further, the “bronchoconstriction protection” value in assay [1] (0.48 μmol/kg) was under 30 mn. Also, the inhibition in vivo at 0.48 µmol/kg is 50 to 75% in assay [1] (5 min, 0.48 μmol/kg, 5 mn, read-out: bronchoconstriction protection, score 5 mn); 20 to 50% in assay [1] (0.25 h, 0.48 μmol/kg, 15 mn, read-out: bronchoconstriction protection, score 15 mn); under 20% in assay [1] (0.5 h, 0.48 μmol/kg, 30 mn, read-out: bronchoconstriction protection, score 30 mn).

In turn, `COc1ccc([C@H]2CC[C@H](CNCC(O)c3ccc(O)c(CO)c3)O2)cc1OC` (relative stereo) [Example 8 (trans), 2-(3',4'-dimethoxyphenyl)-5-[N-[β-(3'-hydroxymethyl-4'-hydroxy-phenyl)-β-hydroxyethyl]-aminomethyl]-tetrahydrofuran] yielded an inhibition constant Ki on β adrenoceptors of 1050 nM. For the same compound, the “bronchoconstriction protection” value in assay [1] (0.13 μmol/kg) was 30 mn; in assay [1] (0.46 μmol/kg), over 30 mn. For the same compound, the figures for the inhibition in vivo at 0.13 µmol/kg in assay [1] (setting [2]), in assay [1] (setting [3]) and in assay [1] (setting [4]) were 50 to 75%, 20 to 50% and 20 to 50%, respectively. Besides, the values for the inhibition in vivo at 0.46 µmol/kg in assay [1] (setting [5]), in assay [1] (setting [6]) and in assay [1] (setting [7]) were 50 to 75%, 50 to 75% and 20 to 50%, respectively.

Take `COc1ccc([C@H]2CC[C@@H](CNCC(O)c3ccc(O)c(CO)c3)O2)cc1` (relative stereo) [Example 9 (cis), 2-(4'-methoxyphenyl)-5-[N-[β-(3'-hydroxymethyl-4'-hydroxy-phenyl)-β-hydroxy-ethyl]-aminomethyl]-tetrahydrofuran]: the Ki on β adrenoceptors worked out at 810 nM. Further, the “bronchoconstriction protection” value in assay [1] (0.46 μmol/kg) is 20 mn. The inhibition in vivo at 0.46 µmol/kg in assay [1] (setting [5]) was 50 to 75%; in assay [1] (setting [6]), 20 to 50%; in assay [1] (setting [7]), under 20%.

For `COc1cc([C@H]2CC[C@@H](CCCNCC(O)c3ccc(O)c(CO)c3)O2)cc(OC)c1OC` (relative stereo) [Example 15 (cis), 2-(3',4',5'-trimethoxyphenyl)-5-[-N-[β-(3'-hydroxymethyl-4'-hydroxy-phenyl)-β-hydroxy-ethyl]-aminopropyl]-tetrahydrofuran], the affinity at β adrenoceptors corresponds to a Ki of 1900 nM.

`COc1cc(C2CCC(CNCC(O)c3ccc(O)c(CO)c3)O2)cc(OC)c1OC` (single isomer, unassigned) [Example 2 (trans) (+), 2-(3',4',5'-trimethoxyphenyl)-5-[N-[β-(3'-hydroxymethyl-4'-hydroxy-phenyl)-β-hydroxy-ethyl]-aminomethyl]-tetrahydrofuran]: the affinity on β adrenoceptors corresponds to a Ki of 50 nM.

On to `COc1cc(C2CCC(CNCC(O)c3ccc(O)c(CO)c3)O2)cc(OC)c1OC` (single isomer, unassigned) [Example 2 (trans) (-), 2-(3',4',5'-trimethoxyphenyl)-5-[N-[β-(3'-hydroxymethyl-4'-hydroxy-phenyl)-β-hydroxy-ethyl]-aminomethyl]-tetrahydrofuran], for which affinity on β adrenoceptors was put at a Ki of 350 nM. Against the preceding compound, the Ki is about 7-fold higher.

`CCCC1CCC(CNCC(O)c2ccc(O)c(CO)c2)O1` (stereo not drawn) [Example 11, 2-propyl-5-[N-[β-(3'-hydroxymethyl-4'-hydroxy-phenyl)-β-hydroxy-ethyl]-aminomethyl]-tetrahydrofuran] had a Ki at β adrenoceptors of 520 nM. This Ki and that of the compound before are within 1.5-fold of each other.
